The record followed here is PubChem BioAssay (NCI).

Each structure is given as a SMILES string. Where “and” joins values, the source holds several entries; their conditions need not be identical. Identical values can stand only once.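 All cell lines were grown in 96-well plates and treated with compound for 48 hours. Here, GI50 denotes the concentration required for 50% inhibition of growth. TGI marks complete inhibition of growth.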

Test in all cases: inhibition of tumour cell growth, NCI panel, 48 h
For assay [1], the system named is K-562 leukemia.
Assay [2] relates to HL-60(TB) leukemia.
Assay [3] relates to CAKI-1 renal.
In assay [4] the test system is OVCAR-8 ovarian.
Assay [5] has as its system COLO 205 colon.
Assay [6] has as its system HT29 colon.
Assay [7] relates to NCI-H522 lung.
The test system of assay [8] is SW-620 colon.
Assay [9] concerns PC-3 prostate.
Assay [10] relates to SR leukemia.

Consider `N#CN=C(N(Cc1ccccc1)Cc1ccccc1)N(Cc1ccccc1)Cc1ccccc1`, for which the TGI in assay [1] was > 100 µM; in [2], 83.8 µM; in assay [3] it was > 100 µM; in assay [4] it was > 100 µM; in [5], > 100 µM; in [6], > 100 µM. For the same compound, the TGI in assay [7] and in assay [8] was > 100 µM in each case.
Regarding `O=C1C(=Cc2ccc(O)cc2)N=C(c2ccccc2)N1n1c(-c2ccccc2)nc2ccccc2c1=O`, the TGI in assay [2], in assay [3], in assay [4], in assay [5], in assay [6] and in assay [7] was > 100 µM in each case. In addition, the TGI in assay [8] and in [9] was > 100 µM throughout.
`CCN(CC)CCC(=O)Nc1ccc2c(c1)C(=O)c1ccc(NC(=O)CCN(CC)CC)cc1C2=O`: the TGI in [1] is 14.8 µM; in [2], 16.7 µM; in [3], 14.7 µM; in [10], 14.5 µM; in [4] it was 18 µM; in assay [5], 14.4 µM. The TGI in [6] worked out at 12.5 µM; in assay [7] it was 23.5 µM; in assay [8], 6.93 µM.
Regarding `COC(=O)[C@H](Cc1c[nH]c2ccccc12)NP(=O)(O)OCC1C=CC(n2cc(C)c(=O)[nH]c2=O)O1` (some centres undefined), the TGI in assay [1], in [2], in assay [3], in assay [4], in assay [5] and in [6] was > 100 µM throughout. The TGI in [8] and in [9] was > 100 µM each time.
Take `CC(=O)O[C@H]1C(=O)[C@]2(C)[C@@H](OC(=O)OCCC(O)CO)C[C@H]3OC[C@@]3(OC(C)=O)[C@H]2[C@H](OC(=O)c2ccccc2)[C@]2(O)C[C@H](OC(=O)[C@H](O)[C@@H](NC(=O)c3ccccc3)c3ccccc3)C(C)=C1C2(C)C` (some centres undefined): the TGI was > 100 µM in assay [1]; < 0.0106 µM in assay [2]; > 42.3 µM in assay [3]; 0.526 µM in assay [6]; < 0.01 µM in assay [7]; > 46.4 µM in [8]. Further, the TGI in assay [9] is > 36.2 µM.
On to `O=S1(=O)NC(=NCc2c[nH]c3ccccc23)N(c2ccccc2)c2ccncc21`, for which the TGI in assay [1], in assay [2], in [3], in [4], in assay [5] and in [6] was > 100 µM each time. For the same compound, the TGI in assay [7] is 92.7 µM; in assay [8], > 100 µM; in [9], > 100 µM.
As for `CC1=CC2C(O1)C1C(=O)C=CC(=O)C1=CC2[N+](=O)[O-]` (centres undefined), the TGI in assay [1] is > 100 µM; in assay [2] it was > 22.5 µM; in [3], 9.33 µM; in assay [4], 60.2 µM; in assay [5] it was 21.2 µM; in assay [6] it was 45.7 µM. Moreover, the TGI in assay [8] is > 24.3 µM; in [9] it was 37.9 µM.
For `COc1cc(/C=C2\S/C(=N/Nc3nc(-c4ccc(Br)cc4)cs3)NC2=O)cc(OC)c1OC`, the TGI in [3] worked out at 46.6 µM; in [4], 29.6 µM; in assay [5] it was 71.3 µM; in [6], 32.5 µM; in [7], 30.2 µM; in [8], 30.8 µM. This compound showed a TGI in assay [9] of 18.6 µM.
Consider `CCCN=C1CCN(Cc2ccccc2)c2ccccc2N1`, for which the TGI in assay [1] was determined as 19.4 µM; in assay [2] it was 37.3 µM; in assay [3], 63.9 µM; in [4], 32.6 µM; in assay [5] it was 22.9 µM; in [6], 90.1 µM. Besides, the TGI in [7] was 27.9 µM; in assay [8] it was > 100 µM; in [9] it was 59.9 µM.
Turning to `Oc1cc2c3c(c1)c1cc4c(cc1c[n+]3CC2)OCO4`, the TGI is > 100 µM in assay [1]; > 27.3 µM in [2]; > 50.3 µM in [3]; 14.1 µM in assay [4]; > 40.6 µM in [5]; > 42.2 µM in assay [6]. The TGI in assay [7] is 4.38 µM; in assay [8], > 36.6 µM; in assay [9], 37.3 µM.
With `COc1nc(N)c(C(=O)CCl)c(=O)n1C`, the TGI was 34.3 µM in assay [1]; 5.61 µM in assay [2]; 23.4 µM in [3]; 42.4 µM in assay [10]; 52.8 µM in [4]; 30.1 µM in assay [5]. Also, the TGI came out at 32.3 µM in [6] and 28.5 µM in [8].
For the compound `CCc1ccc(CCN2CCCCC2)nc1`, the TGI in assay [1], in assay [3], in assay [4], in [5], in assay [6] and in assay [7] was > 100 µM in each case. Further, the TGI in assay [8] and in assay [9] was > 100 µM in each case.
Regarding `CC(=O)NC1=C(NCCC(C)C)C(=O)c2ccccc2C1=O`, the TGI in assay [1], in assay [2], in assay [10], in assay [4], in [5] and in assay [6] was > 50 µM each time. In addition, the TGI in assay [7] and in assay [8] was > 50 µM each time.
As to `O=C(Nc1ccc(C2=NCCN2)cc1)c1cncc(C(=O)Nc2ccc(C3=NCCN3)cc2)c1`, the TGI in [1], in assay [2], in assay [3], in assay [4], in assay [5] and in assay [6] was > 100 µM throughout. For the same compound, the TGI in assay [7] and in assay [8] was > 100 µM in each case.
In the case of `Cc1ccsc1/C=N/Nc1ncccn1`, the TGI in assay [1], in [2], in assay [3], in [4], in [5] and in assay [6] was > 100 µM throughout. Also, the TGI in [8] and in assay [9] was > 100 µM each time.
For the compound `Cc1cccc2c(=O)cc(-c3ccccc3)[nH]c12`, the TGI is > 100 µM in assay [1]; > 100 µM in assay [2]; > 100 µM in assay [10]; 51.5 µM in assay [5]; > 100 µM in [6]; > 100 µM in assay [8].
As for `CCOC(=O)C1=C(C)NC(=S)NC1c1ccccc1` (centres undefined), the TGI is > 75.1 µM in [1]; > 100 µM in [2]; > 41.2 µM in [3]; 50.2 µM in [10]; > 100 µM in assay [4]; > 60.7 µM in assay [5]. Further, the TGI in [6] and in assay [7] was > 100 µM throughout.
Regarding `FC(F)(F)c1cc(Cl)cnc1N/N=C(/c1ccccc1)c1ccccn1`, the TGI in [1] was 49.9 µM; in assay [3], 22.7 µM; in assay [4], 5.06 µM; in [5], > 100 µM; in [6], 20.5 µM; in assay [7], 8.31 µM. Also, the TGI in assay [8] is > 100 µM; in [9], 89.7 µM.
Turning to `Cc1cn(C2CC(N(O)C(N)=O)C(CO)O2)c(=O)[nH]c1=O` (centres undefined), the TGI in assay [1], in [3], in assay [4], in [5], in assay [6] and in [7] was > 100 µM in each case. Further, the TGI in [8] and in [9] was > 100 µM each time.
Take `Brc1ccc(N=c2nc3ccccn3n3nc(-c4ccccc4)cc23)cc1`: the TGI in [1] is > 100 µM; in assay [2] it was > 100 µM; in assay [3], 59.9 µM; in assay [10], > 100 µM; in assay [4] it was > 100 µM; in assay [5], > 100 µM. Also, the TGI is > 100 µM in assay [6], 88.2 µM in assay [7] and > 100 µM in assay [8].
Consider `O=C1c2ccccc2C2C1N2C(=O)C(F)(F)F` (centres undefined), for which the TGI in assay [1] was > 100 µM; in assay [2], 91.5 µM; in [3], > 100 µM; in [10] it was > 100 µM; in assay [4] it was > 100 µM; in assay [5] it was > 100 µM. Further, the TGI in assay [6], in assay [7] and in assay [8] was > 100 µM throughout.
As for `Cc1nc(C(N)=S)sc1/C(CC(=O)C(=O)Nc1cccc2ccc(O)cc12)=N\NC(=O)c1ccncc1`, the TGI in assay [2], in [3], in [4], in [5], in assay [6] and in assay [7] was > 100 µM throughout. The TGI in assay [8] and in assay [9] was > 100 µM each time.
As for `O=C(O)CN(CC(=O)O)C1CCCCC1N(CC(=O)O)CC(=O)NCCN=C=S` (centres undefined), the TGI in [1], in assay [2], in [3], in assay [4], in [6] and in assay [7] was > 100 µM throughout. The TGI in assay [8] and in assay [9] was > 100 µM in each case.
Turning to `O=C1CCC23CC(C=CC=C12)n1c(=O)n(-c2ccccc2)c(=O)n13` (centres undefined), the TGI in assay [1] was > 100 µM; in assay [2], > 80.5 µM; in assay [3] it was > 83.4 µM; in assay [4], > 100 µM; in [5] it was > 100 µM; in [6], > 100 µM. Moreover, the TGI in assay [7] and in [8] was > 100 µM throughout.
For the compound `CC(C)C1/C(=N/O)CC(c2ccccc2)N(N=O)C1c1ccccc1` (centres undefined), the TGI in assay [1] is > 100 µM; in assay [2], 86.7 µM; in [3], 89.7 µM; in assay [4], > 100 µM; in [5] it was 31 µM; in assay [6], 39 µM. Also, the TGI in [7], in assay [8] and in [9] was > 100 µM throughout.
For the compound `O=c1[nH][nH]c(=O)n1Cc1ccccc1Cn1c(=O)[nH][nH]c1=O`, the TGI in assay [1], in assay [2], in assay [3], in assay [4], in assay [5] and in [6] was > 100 µM throughout. Also, the TGI in [7], in assay [8] and in assay [9] was > 100 µM in each case.
With `C=C(C1=CC(=O)C(C)(C)O1)[C@@H]1CC=C([C@@H]2CC[C@H]3[C@@]2(C)CC[C@H]2C(C)(C)C(=O)[C@H](O)C[C@]32C)[C@H](O)O1`, the TGI in assay [1] worked out at 8.01 µM; in assay [2], 8.11 µM; in assay [3], 14.2 µM; in [4] it was 4.75 µM; in assay [5] it was 3.51 µM; in assay [6], 3.48 µM. In assay [9], this compound showed a TGI of 2.68 µM.
Take `CCCNC1=C2CC(C)CC(OC)[C@@H](O)[C@H](C)/C=C(\C)C(OC(N)=O)C(OC)/C=C\C=C(/C)C(=O)NC(=CC1=O)C2=O` (some centres undefined): the TGI in assay [1] is > 100 µM; in [2] it was 2.34 µM and 0.547 µM; in assay [3], > 100 µM; in [4], 32.5 µM; in assay [5], 12.7 µM; in assay [6], 10.9 µM. The TGI was 28.6 µM in [7], > 100 µM in assay [8] and > 100 µM in [9]. In addition, the GI50 in [4] was 0.393 µM; in assay [5] it was 0.0141 µM; in [7], 0.361 µM; in assay [8] it was 0.0606 µM; in [9], 0.477 µM.
For the compound `COc1cc2c(cc1OC)C(c1ccccc1CCCCl)=NCC2`, the TGI in assay [1], in [2], in assay [3], in assay [4], in [5] and in assay [6] was > 100 µM each time. The TGI in assay [7], in assay [8] and in [9] was > 100 µM in each case.
Take `N.N.N.N.O=[N+]([O-])[O-].[Co+3].[N-]=[N+]=[N-].[N-]=[N+]=[N-]`: the TGI in [1], in [2], in assay [4], in [5], in assay [6] and in assay [7] was > 100 µM in each case. Besides, the TGI in assay [8] is > 100 µM.
